Test results: patent US10597388B2, “Pyridazinone herbicides” (FMC CORPORATION, priority 2014, dated 2020)

Assays:
Assay in all cases: Test E greenhouse herbicide test, pre- and postemergence
Type in all cases: in vivo
[1] = test system: Italian ryegrass (Lolium multiflorum)
Procedure, shortened: (§1)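 Seedlings reaching 2–18 cm (1- to 4-leaf stage) received foliar treatment, while seeds in silt loam received a soil surface spray; the vehicle in each case was a non-phytotoxic solvent mixture including surfactant. Visual scoring versus controls followed 14–21 d later on a 0–100 scale.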

[2] = test system: barnyardgrass (Echinochloa crus-galli)
Procedure, shortened: as §1

[3] = test system: beggarticks (hairy beggarticks, Bidens pilosa)
Procedure, shortened: as §1

[4] = test system: crabgrass, Brazilian (Brazilian crabgrass, Digitaria horizontalis)
Procedure, shortened: as §1

[5] = test system: crabgrass, large (large crabgrass, Digitaria sanguinalis); settings: Preemergence
Procedure, shortened: as §1

[6] = test system: dayflower (Virginia (VA) dayflower, Commelina virginica)
Procedure, shortened: as §1

[7] = test system: foxtail, giant (giant foxtail, Setaria faberii); settings: Preemergence
Procedure, shortened: as §1

[8] = test system: foxtail, green (green foxtail, Setaria viridis); settings: Preemergence
Procedure, shortened: as §1

[9] = test system: johnsongrass (Sorghum halepense); settings: Preemergence
Procedure, shortened: as §1

kochia (Kochia scoparia) = test system: kochia (Kochia scoparia)
Procedure, shortened: as §1

[10] = test system: lambsquarters (Chenopodium album); settings: Preemergence
Procedure, shortened: as §1

[11] = test system: nutsedge, yellow (yellow nutsedge, Cyperus esculentus); settings: Preemergence
Procedure, shortened: as §1

[12] = test system: panicum, fall (fall panicum, Panicum dichotomiflorum)
Procedure, shortened: as §1

[13] = test system: ragweed (common ragweed, Ambrosia elatior)
Procedure, shortened: as §1

[14] = test system: sandbur (southem sandbur, Cenchrus echinatus)
Procedure, shortened: as §1

[15] = test system: velvetleaf (Abutilon theophrasti); settings: Preemergence
Procedure, shortened: as §1

[16] = test system: waterhemp (common waterhemp, Amaranthus rudis)
Procedure, shortened: as §1

[17] = 62 g ai/ha, Postemergence, scale 0 to 100 (0 no effect, 100 complete control)
[18] = 62 g ai/ha, Preemergence, scale 0 to 100 (0 no effect, 100 complete control)
[19] = 125 g ai/ha, Postemergence, scale 0 to 100 (0 no effect, 100 complete control)
[20] = 125 g ai/ha, Preemergence, scale 0 to 100 (0 no effect, 100 complete control)
[21] = 250 g ai/ha, Postemergence, scale 0 to 100 (0 no effect, 100 complete control)
[22] = Postemergence, 31 g ai/ha, visual, scale 0 no effect to 100 complete control
[23] = Preemergence, 31 g ai/ha, scale 0 to 100, 0 no effect, 100 complete control
[24] = Preemergence, 250 g ai/ha, visual, scale 0 no effect to 100 complete control
[25] = 62 g ai/ha, scale 0 to 100 (0 no effect, 100 complete control)
[26] = 125 g ai/ha, scale 0 to 100 (0 no effect, 100 complete control)
[27] = 250 g ai/ha, visual, scale 0 no effect to 100 complete control
[28] = 31 g ai/ha, scale 0 to 100, 0 no effect, 100 complete control

SMILES: CCOC(=O)Oc1c(C)nn(C)c(=O)c1-c1c(C)sc2ccc(C)cc12 [Compound 82]
- Plant response rating, Ryegrass, Italian [1, 17]: 70
- Plant response rating, Ryegrass, Italian [1, 18]: 95
- Plant response rating, Ryegrass, Italian [1, 19]: 75
- Plant response rating, Ryegrass, Italian [1, 20]: 100
- Plant response rating, Ryegrass, Italian [1, 21]: 80
- Plant response rating, Ryegrass, Italian [1, 22]: 50
- Plant response rating, Ryegrass, Italian [1, 23]: 75
- Plant response rating, Ryegrass, Italian [1, 24]: 100
- Plant response rating, Barnyardgrass [2, 17]: 40
- Plant response rating, Barnyardgrass [2, 18]: 15
- Plant response rating, Barnyardgrass [2, 19]: 50
- Plant response rating, Barnyardgrass [2, 20]: 30
- Plant response rating, Barnyardgrass [2, 21]: 50
- Plant response rating, Barnyardgrass [2, 22]: 30
- Plant response rating, Barnyardgrass [2, 23]: 0
- Plant response rating, Barnyardgrass [2, 24]: 40
- Plant response rating, Beggarticks [3, 17]: 90
- Plant response rating, Beggarticks [3, 18]: 100
- Plant response rating, Beggarticks [3, 19]: 98
- Plant response rating, Beggarticks [3, 20]: 100
- Plant response rating, Beggarticks [3, 21]: 98
- Plant response rating, Beggarticks [3, 22]: 90
- Plant response rating, Beggarticks [3, 23]: 100
- Plant response rating, Beggarticks [3, 24]: 100
- Plant response rating, Crabgrass, Brazil [4, 17]: 30
- Plant response rating, Crabgrass, Brazil [4, 18]: 100
- Plant response rating, Crabgrass, Brazil [4, 19]: 50
- Plant response rating, Crabgrass, Brazil [4, 20]: 100
- Plant response rating, Crabgrass, Brazil [4, 21]: 50
- Plant response rating, Crabgrass, Brazil [4, 22]: 20
- Plant response rating, Crabgrass, Brazil [4, 23]: 75
- Plant response rating, Crabgrass, Brazil [4, 24]: 100
- Plant response rating, Crabgrass, Large [5, 25]: 70
- Plant response rating, Crabgrass, Large [5, 26]: 80
- Plant response rating, Crabgrass, Large [5, 27]: 90
- Plant response rating, Dayflower, VA [6, 17]: 50
- Plant response rating, Dayflower, VA [6, 18]: 5
- Plant response rating, Dayflower, VA [6, 19]: 60
- Plant response rating, Dayflower, VA [6, 20]: 5
- Plant response rating, Dayflower, VA [6, 21]: 65
- Plant response rating, Dayflower, VA [6, 22]: 40
- Plant response rating, Dayflower, VA [6, 23]: 0
- Plant response rating, Dayflower, VA [6, 24]: 35
- Plant response rating, Foxtail, Giant [7, 25]: 65
- Plant response rating, Foxtail, Giant [7, 26]: 50
- Plant response rating, Foxtail, Giant [7, 28]: 30
- Plant response rating, Foxtail, Giant [7, 27]: 95
- Plant response rating, Foxtail, Green [8, 25]: 70
- Plant response rating, Foxtail, Green [8, 26]: 75
- Plant response rating, Foxtail, Green [8, 28]: 20
- Plant response rating, Foxtail, Green [8, 27]: 90
- Plant response rating, Johnsongrass [9, 26]: 35
- Plant response rating, Johnsongrass [9, 28]: 0
- Plant response rating, Johnsongrass [9, 27]: 50
- Plant response rating, Kochia (kochia (Kochia scoparia); [17]): 98
- Plant response rating, Kochia (kochia (Kochia scoparia); [18]): 90
- Plant response rating, Kochia (kochia (Kochia scoparia); [19]): 95
- Plant response rating, Kochia (kochia (Kochia scoparia); [20]): 100
- Plant response rating, Kochia (kochia (Kochia scoparia); [21]): 98
- Plant response rating, Kochia (kochia (Kochia scoparia); [22]): 90
- Plant response rating, Kochia (kochia (Kochia scoparia); [23]): 20
- Plant response rating, Kochia (kochia (Kochia scoparia); [24]): 100
- Plant response rating, Lambsquarters [10, 25]: 75
- Plant response rating, Lambsquarters [10, 26]: 100
- Plant response rating, Lambsquarters [10, 28]: 98
- Plant response rating, Lambsquarters [10, 27]: 100
- Plant response rating, Nutsedge, Yellow [11, 25]: 10
- Plant response rating, Nutsedge, Yellow [11, 26]: 40
- Plant response rating, Nutsedge, Yellow [11, 28]: 0
- Plant response rating, Nutsedge, Yellow [11, 27]: 65
- Plant response rating, Panicum, Fall [12, 17]: 65
- Plant response rating, Panicum, Fall [12, 18]: 95
- Plant response rating, Panicum, Fall [12, 19]: 75
- Plant response rating, Panicum, Fall [12, 20]: 98
- Plant response rating, Panicum, Fall [12, 21]: 75
- Plant response rating, Panicum, Fall [12, 22]: 70
- Plant response rating, Panicum, Fall [12, 23]: 90
- Plant response rating, Panicum, Fall [12, 24]: 100
- Plant response rating, Ragweed [13, 17]: 90
- Plant response rating, Ragweed [13, 18]: 80
- Plant response rating, Ragweed [13, 19]: 90
- Plant response rating, Ragweed [13, 20]: 100
- Plant response rating, Ragweed [13, 21]: 90
- Plant response rating, Ragweed [13, 22]: 85
- Plant response rating, Ragweed [13, 23]: 85
- Plant response rating, Ragweed [13, 24]: 100
- Plant response rating, Sandbur [14, 18]: 35
- Plant response rating, Sandbur [14, 19]: 70
- Plant response rating, Sandbur [14, 20]: 60
- Plant response rating, Sandbur [14, 21]: 75
- Plant response rating, Sandbur [14, 22]: 50
- Plant response rating, Sandbur [14, 23]: 0
- Plant response rating, Sandbur [14, 24]: 75
- Plant response rating, Velvetleaf [15, 25]: 75
- Plant response rating, Velvetleaf [15, 26]: 95
- Plant response rating, Velvetleaf [15, 28]: 0
- Plant response rating, Velvetleaf [15, 27]: 98
- Plant response rating, Waterhemp [16, 18]: 90
- Plant response rating, Waterhemp [16, 19]: 85
- Plant response rating, Waterhemp [16, 20]: 100
- Plant response rating, Waterhemp [16, 21]: 90
- Plant response rating, Waterhemp [16, 22]: 70
- Plant response rating, Waterhemp [16, 23]: 85
- Plant response rating, Waterhemp [16, 24]: 100
